From publication PMC10222839, “Development of Novel Small-Molecule Activators of Pyruvate Kinase Muscle Isozyme 2, PKM2, to Reduce Photoreceptor Apoptosis” (Pharmaceuticals, 2023)
Values after ≈ are worked out from the molar mass of the structure shown.

Assays:
[1] = biological target: T1, pyruvate kinase (PK) activity in 661W cells (Mus musculus, UniProt P52480); test: PK activity in 661W cell lysates after 2 h incubation with activator; format: cell-based; conditions: for AC50: n = 3; for Emax: n = 3, read-out: 661W Cells Max Activation
T1 construct: endogenous in cells; host or cells: 661W photoreceptor-like cells
Experimental: The potency and efficacy of each compound, 1 through 5, was assessed with recombinant human PKM2 using an enzyme-coupled assay that uses lactate dehydrogenase and measures the reduction in NADH via absorbance at 340 nm. […] To assess the ability of this pyridazinoindolone series of compounds to cross cellular membranes and increase PK activity, we utilized 661W cells, which are immortalized photoreceptor-like cells that express cone markers.
Cell culture. Next, 661W cells were incubated with either DMSO or different concentrations of small-molecule PKM2 activator for 2 h, lysed and homogenized in RIPA Lysis and Extraction Buffer (Thermo Fisher, Waltham, MA, USA, Cat No. 89900) with protease inhibitors (Complete-Mini, Roche Diagnostics, Indianapolis, IN, USA), and centrifuged at 10,000 rpm for 10 min to remove cellular debris. The supernatant (4–8 μL) was then used to assess the pyruvate kinase activity as described above. The total protein content was determined using the Pierce BCA protein assay kit (Thermo Fisher, Waltham, MA, USA, Cat No. 23225) with the Pierce™ Bovine Serum Albumin Standard Pre-Diluted Set (Thermo Fisher, Waltham, MA, USA, Cat No. 23208) and used to normalize activity as described previously.

human recombinant PKM2 = biological target: T2, human recombinant PKM2 (Homo sapiens, UniProt P14618); test: Pyruvate kinase enzyme-coupled (LDH/NADH) assay with recombinant PKM2; format: biochemical; conditions: for AC50: recombinant human PKM2, n = 3, best-fit value ± std. error; for Emax: recombinant human PKM2, n = 3, normalized to DMSO-treated enzyme, read-out: Recombinant PKM2 Max Activation
T2 construct: purchased Sigma SAE0021
Experimental: (§1) Recombinant Enzyme. An enzyme-coupled assay that measures the depletion of NADH via absorbance at 340 nm and uses lactate dehydrogenase (LDH) was employed to determine the activity of pyruvate kinase (PK). To determine the AC50 (concentration of activator necessary to achieve half-maximal activation) of the different small molecules with PKM2, assays were conducted in a 96-well format using 200 μL/well assay volume with 10 nM human recombinant PKM2 (Sigma, St. Louis, MO, USA, Cat No. SAE0021) or PKM1 (Sigma, […], Cat No. SRP0415), differing concentrations of activator, 0.5 mM PEP, 1 mM ADP, 0.2 mM NADH, and 8 U of LDH in a buffer of 50 mM Tris-HCl (pH 7.4), 100 mM KCl, and 5 mM MgCl2 as previously described. A SPECTROstar Omega plate reader (BMG LABTECH Inc., Cary, NC, USA) monitored absorbance at 340 nm. The MARS software suite was utilized to determine initial velocities. Data were normalized to DMSO (dimethyl sulfoxide)-treated enzyme activity, as previously described.

[2] = biological target: T3, pyruvate kinase (PK) activity in rat retina (Rattus norvegicus, UniProt P11980); test: PK activity in rat retina after intravitreal injection; format: in vivo; conditions: intravitreal injection in rats
T3 construct: the retina from each rat eye was dissected from the RPE-choroid, homogenized, and lysed; from tissue; host or cells: retina of adult Brown-Norway rats
Experimental: The intravitreal injection of medications has revolutionized how numerous retinal diseases are treated and are ever-increasing in ophthalmic clinical practice. Therefore, to assess the ability of these small molecules to activate PK in vivo in the rat retina, we utilized this well-accepted drug delivery method. Two microliters of each respective compound at 850 μM or DMSO were intravitreally injected into rat eyes. The vitreous volume of the rat eye was assumed to be 15 μL, giving a final intravitreal concentration of approximately 100 μM for each compound after injection. Retinas were harvested four hours after injection, lysed, and assayed for PK activity as previously described. The eyes treated with DMSO served as the control upon which PK activation was based.
(§2) Two microliters of each respective compound at 8.5 μM (final vitreous concentration of 1 μM) or DMSO was intravitreally injected into rat eyes, and the PK activity was assessed four hours later.
Animals. Intravitreal injections of various small-molecule PKM2 activators or vehicle (DMSO) were performed in Brown-Norway adult rats. The rats were anesthetized with ketamine (90 mg/mL) and xylazine (10 mg/mL) and their pupils dilated with topical phenylephrine (2.5%) and tropicamide (1%) as described previously. A sclerotomy was created with a 25-gauge microvitreoretinal blade (Walcott Rx Products, Ocean View, NJ, USA) just posterior to the limbus. A blunt 35-gauge cannula was inserted through this sclerotomy into the vitreous cavity to deliver 2 μL of different concentrations of small-molecule activator or DMSO. This injection volume produces minimal reflux with adequate reproducibility. Fifteen microliters of vitreous volume was assumed in rats to calculate the intravitreal concentrations of the compound after injection. As we have previously described, left eyes were treated with small-molecular activator, while right eyes were treated with DMSO, which served as the control upon which pyruvate kinase activation was based. Four hours later, the retina from each rat eye was dissected from the RPE-choroid, homogenized, and lysed in RIPA Lysis and Extraction Buffer with protease inhibitors. The pyruvate kinase (PK) activity assay, as described above, was performed using 4 to 8 microliters of rat retinal lysate, similar to what we and others have previously described. Analogous to the cell culture assays, the total protein of the lysate was used to normalize pyruvate kinase activity.

recombinant PKM1 = biological target: T4, recombinant PKM1 (Homo sapiens, UniProt P14618); test: Pyruvate kinase enzyme-coupled assay with recombinant PKM1; format: biochemical; conditions: increasing concentrations (Figure 6b)
T4 construct: purchased Sigma SRP0415
Experimental: as §2, §1

[3] = Aqueous solubility (Analiza, nitrogen detector); format: physicochemical; conditions: aqueous buffer, thermodynamic from solid; PBS, pH 7.4, 24 h, ambient temperature (Table 3)
Experimental: (§3) In brief, each compound was tested at a concentration of 200 μM in PBS, pH 7.4, and room temperature. […] The area of the principal peak in a calibration standard for each compound (200 μM) in organic solvent (60/40 v/v% methanol: water) was compared to the area of the corresponding peak in the PBS sample [42]. Compounds 16–21 underwent solubility testing at Analiza (Cleveland, OH, USA), a contract research organization. Five hundred microliters of PBS, pH 7.4 was added to each amount of compound provided. The samples were vortexed briefly and then placed on a rotary shaker at 200 RPM for 24 h at ambient temperature. Thereafter, the samples were vacuum filtered through a 0.45-micron membrane, and the filtrates were injected into a nitrogen detector for quantification. The nitrogen detector was calibrated using standards, and the filtrates were quantitated based on the calibration curve.

[4] = Aqueous solubility (Eurofins Panlabs, HPLC-UV/Vis); format: physicochemical; conditions: aqueous buffer, kinetic from dmso stock; PBS, pH 7.4, 24 h, room temperature (Table 1)
Experimental: as §3

[5] = final vitreous concentration 1 μM, 4 h (Figure 6a)

T3 sequence (P11980 1-531 isoform P11980-2): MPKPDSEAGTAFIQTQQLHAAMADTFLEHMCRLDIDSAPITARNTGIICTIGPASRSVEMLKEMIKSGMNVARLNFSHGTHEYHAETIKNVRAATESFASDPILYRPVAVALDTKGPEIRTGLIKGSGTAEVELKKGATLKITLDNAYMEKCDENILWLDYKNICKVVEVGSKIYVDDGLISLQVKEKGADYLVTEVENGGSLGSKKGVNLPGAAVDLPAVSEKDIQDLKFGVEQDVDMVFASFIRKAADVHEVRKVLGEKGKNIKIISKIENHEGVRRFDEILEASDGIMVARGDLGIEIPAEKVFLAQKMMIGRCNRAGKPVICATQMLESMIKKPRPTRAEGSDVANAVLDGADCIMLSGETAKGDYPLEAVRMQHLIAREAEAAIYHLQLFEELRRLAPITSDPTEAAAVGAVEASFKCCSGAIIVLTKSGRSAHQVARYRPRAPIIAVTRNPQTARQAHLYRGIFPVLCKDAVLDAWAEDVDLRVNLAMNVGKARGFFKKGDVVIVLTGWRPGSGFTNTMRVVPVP
T1 sequence (P52480 whole entry): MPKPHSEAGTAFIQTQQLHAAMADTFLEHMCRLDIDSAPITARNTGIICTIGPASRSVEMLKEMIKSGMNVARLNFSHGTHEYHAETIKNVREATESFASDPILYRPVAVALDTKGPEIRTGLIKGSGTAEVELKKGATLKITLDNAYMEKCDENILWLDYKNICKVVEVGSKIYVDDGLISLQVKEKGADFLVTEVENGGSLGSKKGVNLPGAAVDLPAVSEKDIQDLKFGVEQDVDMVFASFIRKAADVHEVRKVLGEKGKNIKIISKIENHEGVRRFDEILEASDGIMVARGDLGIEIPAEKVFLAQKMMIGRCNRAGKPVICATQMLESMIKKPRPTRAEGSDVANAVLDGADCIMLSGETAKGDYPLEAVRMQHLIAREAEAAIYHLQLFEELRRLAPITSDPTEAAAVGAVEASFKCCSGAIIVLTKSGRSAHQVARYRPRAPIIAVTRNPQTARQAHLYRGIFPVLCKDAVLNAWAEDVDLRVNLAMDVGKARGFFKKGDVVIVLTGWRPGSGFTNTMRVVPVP
T2 sequence (P14618 whole entry): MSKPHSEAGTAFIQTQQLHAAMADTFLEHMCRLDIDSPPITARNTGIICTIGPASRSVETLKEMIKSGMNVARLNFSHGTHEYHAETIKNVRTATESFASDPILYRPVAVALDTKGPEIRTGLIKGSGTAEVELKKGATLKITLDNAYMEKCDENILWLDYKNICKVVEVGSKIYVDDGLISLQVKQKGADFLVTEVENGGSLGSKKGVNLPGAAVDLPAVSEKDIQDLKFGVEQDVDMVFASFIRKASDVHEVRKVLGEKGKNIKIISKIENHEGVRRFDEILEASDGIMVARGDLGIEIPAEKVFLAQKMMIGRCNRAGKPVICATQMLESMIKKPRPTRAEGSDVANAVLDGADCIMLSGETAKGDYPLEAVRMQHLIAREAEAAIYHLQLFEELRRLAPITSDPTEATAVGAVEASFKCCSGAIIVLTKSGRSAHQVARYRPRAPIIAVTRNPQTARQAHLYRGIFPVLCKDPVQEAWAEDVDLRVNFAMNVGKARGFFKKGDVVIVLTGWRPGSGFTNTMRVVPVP
T4 sequence (P14618 1-531 isoform P14618-2): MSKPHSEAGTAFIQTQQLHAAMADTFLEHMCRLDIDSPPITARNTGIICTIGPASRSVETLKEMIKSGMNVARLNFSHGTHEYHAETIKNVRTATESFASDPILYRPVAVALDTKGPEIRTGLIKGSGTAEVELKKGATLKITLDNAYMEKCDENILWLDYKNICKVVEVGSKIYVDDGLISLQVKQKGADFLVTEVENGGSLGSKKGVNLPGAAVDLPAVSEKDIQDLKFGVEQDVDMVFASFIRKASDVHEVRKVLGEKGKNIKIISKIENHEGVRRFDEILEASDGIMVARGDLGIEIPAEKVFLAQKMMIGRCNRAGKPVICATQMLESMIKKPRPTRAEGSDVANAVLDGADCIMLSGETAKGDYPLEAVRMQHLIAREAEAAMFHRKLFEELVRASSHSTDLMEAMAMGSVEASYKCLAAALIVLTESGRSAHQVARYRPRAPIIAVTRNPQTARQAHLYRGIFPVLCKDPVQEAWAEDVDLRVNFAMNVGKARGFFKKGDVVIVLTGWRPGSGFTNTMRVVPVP

AC50 [1] [nM]	Emax [1] [%]	AC50 (human recombinant PKM2) [nM]	Emax (human recombinant PKM2) [%]	PK activity increase, less than that observed with ML-265 [2, 5]	activation of recombinant PKM1 (recombinant PKM1)	solubility at 24 h [3] [µM]	solubility at 24 h [4] [µM]	SMILES	PK activation in rat retina compared with ML-265 [2, 5]	AC50 ([2]; increasing concentrations, retina 4 h, read-out: in vivo AC50) [nM]	Emax ([2]; rat, increasing concentrations, retina 4 h, normalized to DMSO, read-out: in vivo PK activity (maximum activation)) [%]
222 ± 81	297 ± 22	83 ± 9	266 ± 9	20–30%	did not activate			Cc1cccc(Cn2ncc3c4cc(F)c(CN(C)C)cc4n(C)c3c2=O)n1 [Compound 19]			
106 ± 27	257 ± 12	64 ± 4	245 ± 5	20–30%		858 (≈ 348 µg/mL)		Cc1cccc(Cn2ncc3c4cc(F)c(CN5CCCC5)cc4n(C)c3c2=O)n1 [Compound 18]			
132 ± 47	236 ± 16	61 ± 12	249 ± 14				12.7 (≈ 4.04 µg/mL)	Cc1ccc2c3cnn(Cc4cccc(N)c4)c(=O)c3n(C)c2c1 [Compound 5]			
93 ± 29	288 ± 17	62 ± 11	239 ± 12			462 (≈ 184 µg/mL)		Cn1c2cc(CNCCO)c(F)cc2c2cnn(Cc3ccccc3F)c(=O)c21 [Compound 20]			
162 ± 46	268 ± 15	65 ± 8	224 ± 8			397 (≈ 167 µg/mL)		Cc1cccc(Cn2ncc3c4cc(F)c(CN5CCOCC5)cc4n(C)c3c2=O)n1 [Compound 16]			
1620 ± 428	430 ± 33	58 ± 5	213 ± 6			1120 (≈ 442 µg/mL)		Cc1cccc(Cn2ncc3c4cc(F)c(CNCCO)cc4n(C)c3c2=O)n1 [Compound 17]			
66 ± 19	256 ± 13	48 ± 10	216 ± 12				< 0.01	CSc1ccc2c3cnn(Cc4cccc(N)c4)c(=O)c3n(C)c2c1 [Compound 4]			
72 ± 24	299 ± 18	66 ± 10	339 ± 16			334 (≈ 141 µg/mL)		Cn1c2cc(CN3CCNCC3)c(F)cc2c2cnn(Cc3ccccc3F)c(=O)c21 [Compound 21]	approximately a third of the retinal PK activation as that achieved with ML-265		
104 ± 32	280 ± 17	47 ± 10	279 ± 16				12.1 (≈ 4.25 µg/mL)	Cn1c2cc([S+](C)[O-])ccc2c2cnn(Cc3ccccc3)c(=O)c21 (stereo not shown) [Compound 3]			
175 ± 64	219 ± 16	23 ± 4	224 ± 9				< 0.01	Cc1ccc2c3cnn(Cc4ccccc4)c(=O)c3n(C)c2c1 [Compound 1]			

SMILES	AC50 [1] [nM]	Emax [1] [%]	AC50 (human recombinant PKM2) [nM]	Emax (human recombinant PKM2) [%]	PK activity increase, less than that observed with ML-265 [2, 5]	activation of recombinant PKM1 (recombinant PKM1)	solubility at 24 h [3] [µM]	solubility at 24 h [4] [µM]	PK activation in rat retina compared with ML-265 [2, 5]	AC50 ([2]; increasing concentrations, retina 4 h, read-out: in vivo AC50) [nM]	Emax ([2]; rat, increasing concentrations, retina 4 h, normalized to DMSO, read-out: in vivo PK activity (maximum activation)) [%]
Cn1c2cc([S+](C)[O-])sc2c2cnn(Cc3cccc(N)c3)c(=O)c21 (stereo not shown) [ML-265, reference compound]	108 ± 32	370 ± 21		292 ± 21						866 ± 176	202 ± 8
